From patent US8598132B2, “Glycosylated indolocarbazoles, method for obtaining same and uses thereof” (Universidad de Oviedo, priority 2008, dated 2013)

Target: T1, AurA (Homo sapiens, UniProt O14965)
T1 construct: purchased Carna Biosciences
T1 sequence (O14965 1-403): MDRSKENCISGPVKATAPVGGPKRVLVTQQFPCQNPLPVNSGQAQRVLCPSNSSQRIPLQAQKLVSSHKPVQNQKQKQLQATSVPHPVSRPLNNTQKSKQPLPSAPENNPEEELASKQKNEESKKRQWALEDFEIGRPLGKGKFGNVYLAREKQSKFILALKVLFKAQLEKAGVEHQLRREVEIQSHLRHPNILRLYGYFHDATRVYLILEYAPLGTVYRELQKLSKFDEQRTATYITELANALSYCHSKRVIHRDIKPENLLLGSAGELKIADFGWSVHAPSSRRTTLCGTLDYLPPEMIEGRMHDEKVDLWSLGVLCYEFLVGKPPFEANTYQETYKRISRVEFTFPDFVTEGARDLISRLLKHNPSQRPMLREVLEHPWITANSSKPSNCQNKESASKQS
Test: LabChip (Caliper) kinase assay, AurA
Format: biochemical
Conditions: for inhibition at 0.01 µM: compound at 10 nM; for inhibition at 0.01 µM / inhibition at 0.1 µM: read-out: remaining kinase activity (in %) / percentage of inhibition; for inhibition at 0.1 µM: compound at 100 nM; for IC50: ATP at Km, read-out: CI50 (the source's name)
Protocol: The analysis of kinase activity described here was performed using LabChip (Caliper Life Sciences), specifically the Caliper LC3000 and the EZ Reader II instruments.
The kinase assay used measures the conversion of a fluorescent peptide (substrate) to a phosphorylated product. The reaction mixture, in a microplate well, is introduced by a capillary in a chip where the non-phosphorylated substrate and the phosphorylated product are separated by […]. The intensity of the fluorescent signal over time is related to the reaction progress. The phosphorylated product migrates quicker than the non-phosphorylated substrate and the signals of the two forms of the peptide appear as differentiated peaks. The Caliper determines the peak height and calculates the ratio of product to the peak sum (P/(P+S)). This value is used to compare wells with compounds and wells with controls and thus determine the % of inhibition for the given product.
The followings kinases were used for the enzymatic inhibition studies, between brackets the value of the Michaelis-Menten constant, Km, of the ATP (Adenosine triphosphate) for each kinase, in μM: obtained from Carna Biosciences: MAPKAPK2 (4.6), AurA (3.6), AurB (5), PKCζ (3.8), RSK1 (23.3), PRAK (5), Erk1 (33.4), PKD2 (32.1), CK1d (16.3), CHK1 (33), ABL (61.7), FYN (36), LYNa (17), CHK2 (57.8), MET (79.5), LCK (28.5), SRC (38), GSK3β (7.3), Erk2 (62.1), PKACα (1.7), AKT2 (186.1), INSR (871.8), p38a (396.5), AKT1(48), MSK1 (21.2), PKCβ2 (84.8), ROCK2 (3.3), PIM2 (4.9), AMPK (38.6), KDR (164.8), IRAK4 (196.5), SGK1 (121.8), SYK (33.5); obtained from Invitrogen: CDK2 (57.6), BTK (123), HGK (80); obtained from Upstate: MST2 (36.6), PKGα (16), PAK2 (1.9), IGF1R (320), FGFR1 (171), MARK1 (33), CAMK2δ (22.4), c-TAK1 (66), DYRK1a (18.1), CaMK4 (3.9), FLT3 (350), c-Raf (6.2), P70S6K (95).
The compounds were dissolved in 100% DMSO and were diluted at 25 times the final concentration desired for the assay. In the case of the determination of Cl50, serial dilutions were made to reach eight concentrations and give rise to the inhibition curve. 1 μL of each concentration is transferred, in duplicate to a 384-well microplate. 12 μL of enzymatic buffer is added to each well containing purified kinase (several suppliers as indicated above), 100 mM HEPES, pH 7.5, 1 mM DTT (Calbiochem), 0.002% Brij-35 (Sigma) and also in presence of 10 mM MgCl2 as cofactor, except for INSR and IRAK4 wherein 10 mM MnCl2 is used instead of MgCl2. For the kinases CAMK26 and CAMK4, 1 mM CaCl2 and 6.7 μg/mL of calmodulin are also added. For KDR kinase, 0.05% of the CHAPSO detergent is added. For the c-Raf kinase, 10 mM MnCl2 is added. For PKCβ2 0.02 μg/mL of PS/PMA is added. For PKGα se 10 μM of cGMP (cyclic guanosine monophosphate) is added. The compound and the enzyme are left for 15 minutes preincubation and, then, the following are added to each well: 12 μL of peptide buffer/ATP containing 100 mM HEPES, pH 7.5, 1.5 μM peptide marker with fluorescein (specific for the corresponding kinase), ATP (at concentration KM), and 0.002% Brij-35 to start the reaction. Generally, the reactions are incubated for 1-1.5 h at ambient temperature to obtain an adequate conversion (15-40%) of the peptide to the phosphorylated product. The reactions were ended by the addition of 45 μL of buffer containing 0 mM EDTA. The microplates were read by the LabChip 3000 using a 12-channel LabChip. The P/(P+S) values were obtained as described above and the CI50 curves were generated using XIfit.
Table 9a has the 0150 data obtained in pairs of compound-kinase selected from the compounds of formula (VII), (VIII), (IX), (XVI), (XVII) and (XVIII) after taking inhibition measurements at 100 nM and 10 nM. Those couples that provide >70% of inhibition at 10 nM were consider for measuring its IC50. […]

Row | Compound | inhibition at 0.01 µM | inhibition at 0.1 µM | IC50
1 | C[C@@H]1O[C@@H](n2c3ccccc3c3c4c(c5c6ccccc6[nH]c5c32)C(=O)NC4=O)C[C@H](O)[C@H]1O [formula (IV), N^13-1′-β-L-olivosylarcyriaflavin] | 4% | 19% | 
2 | C[C@]12O[C@H](C[C@H](O)[C@H]1O)n1c3ccccc3c3c4c(c5c6ccccc6n2c5c31)C(=O)NC4=O [formula (VIII), N^12-5′(S)-N^13-1′-(R)-L-olivosylarcyriaflavin] |  |  | > 10 nM
3 | C[C@H]1O[C@@H](n2c3ccccc3c3c4c(c5c6ccccc6[nH]c5c32)CNC4=O)C[C@@H](O)[C@@H]1O [formula (XV), N^13-1′-β-D-olivosyl-k252c] | 3% | 20% | 
4 | C[C@]12O[C@H](C[C@@H](O)[C@H]1O)n1c3ccccc3c3c4c(c5c6ccccc6n2c5c31)CNC4=O [formula (XVIII), N^12-5′(S)-N^13-1′-(R)-L-digitoxosyl-k252c] |  |  | > 10 nM
5 | C[C@]12O[C@H](C[C@H](O)[C@H]1O)n1c3ccccc3c3c4c(c5c6ccccc6n2c5c31)CNC4=O [formula (XVII), N^12-5′(S)-N^13-1′-(R)-L-olivosyl-k252c] |  |  | 5 nM
6 | C[C@@H]1O[C@@H](n2c3ccccc3c3c4c(c5c6ccccc6[nH]c5c32)CNC4=O)[C@H](O)[C@H](O)[C@H]1O [formula (XII), N^13-1′-β-L-rhamnosyl-k252c] | 2% | 3% | 
7 | C[C@@H]1O[C@@H](n2c3ccccc3c3c4c(c5c6ccccc6[nH]c5c32)CNC4=O)C[C@@H](O)[C@H]1O [formula (XIV), N^13-1′-β-L-digitoxosyl-k252c] | 1% | 5% | 
8 | C[C@]12O[C@H](C[C@@H](O)[C@H]1O)n1c3ccccc3c3c4c(c5c6ccccc6n2c5c31)C(=O)NC4=O [formula (IX), N^12-5′(S)-N^13-1′-(R)-L-digitoxosylarcyriaflavin] |  |  | 6.7 nM
9 | C[C@@H]1O[C@@H](n2c3ccccc3c3c4c(c5c6ccccc6[nH]c5c32)CNC4=O)C[C@H](O)[C@H]1O [formula (XIII), N^13-1′-β-L-olivosyl-k252c] | 2% | 24% | 
10 | C[C@]12O[C@H]([C@H](O)[C@H](O)[C@H]1O)n1c3ccccc3c3c4c(c5c6ccccc6n2c5c31)C(=O)NC4=O [formula (VII), N^12-5′(S)-N^13-1′-(R)-L-rhamnosylarcyriaflavin] |  |  | > 10 nM
11 | C[C@@H]1O[C@@H](n2c3ccccc3c3c4c(c5c6ccccc6[nH]c5c32)C(=O)NC4=O)C[C@@H](O)[C@H]1O [formula (V), N^13-1′-β-L-digitoxosylarcyriaflavin] | 4% | 22% | 
12 | C[C@@H]1O[C@@H](n2c3ccccc3c3c4c(c5c6ccccc6[nH]c5c32)C(=O)NC4=O)[C@H](O)[C@H](O)[C@H]1O [formula (III), N^13-1′-β-L-rhamnosylarcyriaflavin] | 0% | 5% | 
13 | C[C@H]1O[C@@H](n2c3ccccc3c3c4c(c5c6ccccc6[nH]c5c32)C(=O)NC4=O)C[C@@H](O)[C@@H]1O [formula (VI), N^13-1′-β-D-olivosylarcyriaflavin] | 3% | 13% | 
